Assay results from patent US20240279319A1, “ANTIBODY FOR IDENTIFYING PHOSPHORYLATION-SPECIFIC REACTIONS OF THREONINE AT POSITION 1010 OF NCAPG2, AND USE THEREOF” (NATIONAL CANCER CENTER, priority 2021, published 2024).

System: NCAPG2 pT1010
Assay: NCAPG2 pT1010-specific antibody reactivity after phosphorylase inhibitor treatment of nocodazole-treated breast cancer cells
Format: cell-based, human
Settings: MBAMB 231 treated with nocodazole, then inhibitor for 2 hours; FIG. 1B, 1C
Procedure: In addition, to confirm a phosphorylase inducing phosphorylation, after treating a breast cancer cell line MBAMB 231 with nocodazole, which is a mitosis-inducing reagent, and then with inhibitors of phosphorylases regulating mitosis for 2 hours, the reactivity of the NCAPG2 pT1010-specific antibody was confirmed.

## c1nc2nc(Nc3ccc(N4CCOCC4)cc3)nc(NC3CCCCC3)c2[nH]1 [reversine]
  NCAPG2 pT1010 phosphospecific bands after kinase inhibition: phosphospecific bands disappear

## O=C1NC(=NCc2cccs2)S/C1=C\c1ccc2ncccc2c1 [RO3306]
  NCAPG2 pT1010 phosphospecific bands after kinase inhibition: phosphospecific bands disappear
